The values below come from patent US8486945B2, “Heterocyclic inhibitors of an Hh-signal cascade, medicinal compositions based thereon and methods for treating diseases caused by the aberrant activity of an Hh-signal system” (priority 2007, dated 2013).

As a reminder, the IC50 is the concentration that gives 50% inhibition. A low value points to higher potency. The Cmax is the peak of the concentration-time curve. By MTD is commonly meant the largest dose that counted as tolerated. The term melting point denotes the temperature of the solid-liquid transition.

The test system of data set [1] is transcription factor Gli1. Put plainly: Suppression of transcription factor Gli1 induction in Panc1 cell culture. The class given is cell-based, human. The following applies: 20 mkM, 72 hours, Panc1 cells. Here is the method: Examples of suppression of the transcription factor Gli1 induction in human's tumor cell culture Panc1 by compounds of the general formulas I-VIII are presented in FIG. 2. […] This effect could be enhanced at combined action of the tested compound and kinas inhibitor (oncolitic Iressa). For caning out the experiments the tumour cell culture Panc1 was cultivated for 72 hours in the presence of 20 mkM of tested compounds.
Measurements of expression level Gli1 were carried out by determination of HGli mRNA amount according to the method [Lauth M., Bergstrom A., Shimokawa T., Toftgard R. Inhibition of GLI-mediated transcription and tumor cell growth by small-molecule antagonists. PNAS. 2007, 104(20): 8455-8460].

The subject of data set [2] is Hh-signalling cascade. Briefly: Inhibition of SHh-induced alkaline phosphatase in C3H10T1/2 cells (Hh-signalling cascade inhibition). The class given is cell-based. The settings on record: Mus musculus, C3H 10T1/2, half maximal inhibition of SHh (0.3 μg/ml) stimulation of cell alkaline phosphatase. In outline:
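C3H10T1/2 cells preincubated 30 min with compound (screen at 10 μM; IC50 from triplicate dilution series), then stimulated with 0.3 μg/ml recombinant SHh for 3 days at 37 °C. Alkaline phosphatase measured by CSPD luminescence in 0.2% Triton-X100 lysates; IC50 = half-maximal inhibition of SHh-induced activity.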

The nature of data set [3]: Pharmacokinetic investigation in mice (PO and IP). The settings on record: BALB/c, mouse, plasma; for half-life: read-out: T½. The class given is in vivo, mice of BALB/c line. Here is the method: Pharmacokinetic investigations were carried out on mice of BALB/c line. All animals were divided into three groups in a random manner: two experimental groups were used for pharmacokinetic analyses at peroral (PO) and intraperitoneal (IP) ways of substance introduction in various doses, and the control group for getting intact blood plasma.
Blood samples were taken by decapitation of animals before introduction of medicament (control samples), and by decapitation in 5, 15, 30, 60, 120 and 240 minutes after introduction of medicament. Three mice were used for each time interval point.
Analysis of samples comprising compounds of the general formulas I-VIII was carried out by Chromato-Mass-Spectrometry method. The data were analysed by means of software package WinNonLin (Pharsight, CIIIA).
Oral bioavailability % F of compounds of the general formulas I-VIII was calculated on the basis of experimental results according to the following equation: % F=[AUC0→t,(PO)/AUC0→t,(IP)]×100%.

Data set [4] in a line: Maximum tolerated dose, intraperitoneal once daily for 5 days. The settings on record: mouse, in vivo, ip, male SHK mice. As to the method:
Maximum tolerated dose of compounds was determined in tests on male mice of SHK line by intraperitoneal once daily introduction of the compounds in doses from 30 to 300 mg/kg during 5 days. 8 Mice were used in each group. Weight of mice and also animals' mortality were registered. […] According to the classification of chemical compounds toxicity the investigated compounds may be referred to low-toxic substances.

Data set [5] in a line: Pharmacokinetic investigation in mice (PO and IP). The class given is in vivo, mice of BALB/c line. The following applies: BALB/c, mouse, plasma, read-out: % F (PO/IV).
The target of data set [6] is T1, Smo receptors (Homo sapiens, UniProt Q99835).
T1 construct: expressed in transfected cells; host or cells: HEK cells (Smo-HEK)
T1 sequence (Q99835 28-787): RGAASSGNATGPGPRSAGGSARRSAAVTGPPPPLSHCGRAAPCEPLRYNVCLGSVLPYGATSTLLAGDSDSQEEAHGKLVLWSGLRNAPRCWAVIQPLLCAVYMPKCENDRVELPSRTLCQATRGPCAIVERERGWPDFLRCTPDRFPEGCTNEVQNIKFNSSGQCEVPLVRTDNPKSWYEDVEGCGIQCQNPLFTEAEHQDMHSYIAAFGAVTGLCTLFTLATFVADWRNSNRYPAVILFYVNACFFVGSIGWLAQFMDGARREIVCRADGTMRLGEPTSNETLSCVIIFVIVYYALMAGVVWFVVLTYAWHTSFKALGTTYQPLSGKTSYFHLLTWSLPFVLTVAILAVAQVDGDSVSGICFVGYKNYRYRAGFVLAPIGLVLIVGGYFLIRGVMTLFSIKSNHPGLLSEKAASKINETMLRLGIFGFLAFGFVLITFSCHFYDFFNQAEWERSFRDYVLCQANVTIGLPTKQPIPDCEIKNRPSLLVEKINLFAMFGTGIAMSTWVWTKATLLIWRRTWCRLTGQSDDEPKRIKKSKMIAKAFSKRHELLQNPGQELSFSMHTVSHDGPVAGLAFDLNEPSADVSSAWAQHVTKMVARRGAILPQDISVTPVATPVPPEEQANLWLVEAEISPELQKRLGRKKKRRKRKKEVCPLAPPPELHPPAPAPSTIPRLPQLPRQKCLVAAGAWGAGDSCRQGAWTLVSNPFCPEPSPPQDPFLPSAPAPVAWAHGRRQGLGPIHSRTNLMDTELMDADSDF
Briefly: Displacement of bodipy-cyclopamine from Smo receptors in Smo-HEK cells. The class given is binding. The settings on record: half-maximal displacement of bodipy-cyclopamine. Here is the method:
Binding parameters to Smo receptors for some of compounds of the general formulas I-VIII are presented in table 11 as the values of half-maximal displacement of cyclopamine labelled with fluorescent dye (bodipy-cyclopamine). The tests were carried out for Smo-HEK cells, comprising artificially expressed protein Smo.

Structures are written as SMILES. Read-outs that look alike come from different tables or passages of the source.

Turning to `COc1cccc(N2CCN(C(=O)Cn3nc(C)c4c(C)n(-c5ccccc5)nc4c3=O)CC2)c1` [I-1001, 2-Phenyl-3,4-dimethyl-6-{2-[4-(3-methoxyphenyl)piperazin-1-yl]-2-oxoethyl}-2,6-dihydro-7H-pyrazolo[3,4-d]pyridazin-7-one], the “Suppression of Gli1 expression (HGli mRNA)” value in data set [1] is “block effectively Hh-signalling cascade”. Besides, the IC50 in data set [2] was < 500 nM. Moreover, the half-life in data set [3] (PO, 5 mg/Kg) came to 2.08 h. For the same molecule, the Cmax in data set [3] (PO, 20 mg/Kg) stood at 4460 ng/mL. In data set [4], the MTD at 5 days was > 200 mg/kg. For the same molecule, in data set [5], the bioavailability was 35%.
With `Cc1nn(CC(=O)N2CCN(c3ccccc3F)CC2)c(=O)c2nn(-c3ccccc3)c(C)c12` [I-1007, 2-Phenyl-3,4-dimethyl-6-{2-[4-(2-fluorophenyl)piperazin-1-yl]-2-oxoethyl}-2,6-dihydro-7H-pyrazolo[3,4-d]pyridazin-7-one], the melting point was in the range of 240 to 242 °C. In addition, the IC50 in data set [2] is < 500 nM.
The like results for `Cc1nn(C(C)C(=O)N2CCN(c3ccccc3)CC2)c(=O)c2nn(-c3ccccc3)c(C)c12` (stereo not shown) [I-1008, 2 Phenyl-3,4-dimethyl-6-[1-methyl-2-(4-phenylpiperazin-1-yl)-2-oxoethyl]-2,6-dihydro-7H-pyrazolo[3,4-d]pyridazin-7-one] were, in that order, 193 to 195 °C and < 500 nM.
With `Cc1nn(C(C)C(=O)N2CCN(c3cccc(Cl)c3)CC2)c(=O)c2nn(-c3ccccc3)c(C)c12` (stereo not shown) [I-1009, 2-Phenyl-3,4-dimethyl-6-{1-methyl-2-[4-(3-chlorophenyl)piperazin-1-yl]-2-oxoethyl}-2,6-dihydro-7H-pyrazolo[3,4-d]pyridazin-7-one], the melting point lay in the range of 194 to 196 °C. Also, in data set [2], the half-inhibitory concentration (IC50) was < 500 nM.
The like results for `Cc1nn(C(C)C(=O)N2CCN(C3CCCCC3)CC2)c(=O)c2nn(-c3ccccc3)c(C)c12` (stereo not shown) [I-1010, 2-Phenyl-3,4-dimethyl-6-{1-methyl-2-[4-cyclohexylpiperazin-1-yl]-2-oxoethyl}-2,6-dihydro-7H-pyrazolo[3,4-d]pyridazin-7-one] were, in that order, 132 to 135 °C and < 500 nM.
The like results for `Cc1cccc(N2CCN(C(=O)C(C)n3nc(C)c4c(C)n(-c5ccccc5)nc4c3=O)CC2)c1C` (stereo not shown) [I-1011, 2-Phenyl-3,4-dimethyl-6-{1-methyl-2-[4-(2,3-dimethylphenyl)piperazin-1-yl]-2-oxoethyl}-2,6-dihydro-7H-pyrazolo[3,4-d]pyridazin-7-one] were, in that order, 136 to 138 °C and < 500 nM.
The like results for `Cc1nn(C(C)C(=O)N2CCN(Cc3ccccc3)CC2)c(=O)c2nn(-c3ccccc3)c(C)c12` (stereo not shown) [I-1012, 2-Phenyl-3,4-dimethyl-6-{1-methyl-2-[4-benzylpiperazin-1-yl]-2-oxoethyl}-2,6-dihydro-7H-pyrazolo[3,4-d]pyridazin-7-one] were, in that order, 152 to 154 °C and < 500 nM.
Take `O=C(c1cc2sccc2n1Cc1ccc(F)cc1)N1CCC(C(=O)N2CCOCC2)CC1` [V-1001, [4-(4-Fluorobenzyl)-4H-thieno[3,2-b]pyrrol-5-yl][4-(morpholine-4-carbonyl)piperidin-1-yl]methanone]: the melting point fell in the range of 120 to 122 °C. Also, in data set [2], the IC50 is < 500 nM.
The like results for `Cc1cc(C)cc(NC(=O)C2CCN(C(=O)c3cc4sccc4n3Cc3ccc(F)cc3)CC2)c1` [V-1002, 1-[4-(4-Fluorobenzyl)-4H-thieno[3,2-b]pyrrole-5-carbonyl]piperidine-4-carboxylic acid (3,5-dimethylphenyl)amide] were, in that order, 203 to 205 °C and < 500 nM.
Regarding `CN1CCN(C(=O)C2CCN(C(=O)c3cc4sccc4n3Cc3ccc(Cl)cc3)CC2)CC1` [V-1017, [4-(4-Chlorobenzyl)-4H-thieno[3,2-b]pyrrol-5-yl][4-(4-methylpiperazine-1-carbonyl)-piperidin-1-yl]methanone], in data set [3] (IP, 5 mg/Kg), the Cmax stood at 289 ng/mL and the half-life turned out to be 1.13 h. Besides, in data set [3] (PO, 20 mg/Kg), the Cmax amounted to 758 ng/mL and the half-life was found to be 2.28 h. Besides, the MTD at 5 days in data set [4] was > 200 mg/kg. In data set [6], this molecule displayed an IC50 of 40 nM. The bioavailability in data set [5] was found to be 63%.
On to `O=C(c1cc2sccc2n1Cc1ccc(Cl)cc1)N1CCC(C(=O)N2CCCCCC2)CC1` [V-1043, 1-[4-(4-Chlorobenzyl)-4H-thieno[3,2-b]pyrrole-5-carbonyl]piperidine-4-carboxylic acid hexamethylene amide], for which the half-inhibitory concentration (IC50) in data set [2] was < 5000 nM; in data set [6], 69 nM. Besides, the Cmax amounted to 167 ng/mL in data set [3] (IP, 5 mg/Kg) and 71 ng/mL in data set [3] (PO, 5 mg/Kg). The half-life in data set [3] (IP, 5 mg/Kg) is 1.07 h. Further, the maximal tolerated dose (MTD) at 5 days in data set [4] was > 200 mg/kg. Besides, the bioavailability in data set [5] was determined as 3%.
Take `CCOc1ccc(NC(=O)c2ccnc(N3CCC(C(=O)NCCCc4ccccc4)CC3)c2)cc1` [VI-1001, 3,4,5,6-Tetrahydro-2H-[1,2]bipyridinyl-4,4′-carboxylic acid 4′-[(4-ethoxyphenyl)amide] 4-[(3-phenylpropyl)amide]]: the melting point is 203 to 205 °C. Further, in data set [2], the IC50 was < 500 nM.
Consider `CCOc1ccc(NC(=O)c2ccnc(N3CCC(C(=O)Nc4ccc(C)c(C)c4)CC3)c2)cc1` [VI-1002, 3,4,5,6-Tetrahydro-2H-[1,2′]bipyridinyl-4,4′-carboxylic acid 4-[(3,4-dimethylphenyl)amide] 4′-[(4-ethoxyphenyl)amide]], for which the melting point lay in the range of 235 to 237 °C. Further, in data set [2], the IC50 was < 5000 nM.
The like results for `CCOc1ccc(NC(=O)c2ccnc(N3CCC(C(=O)Nc4cc(C)cc(C)c4)CC3)c2)cc1` [VI-1003, 3,4,5,6-Tetrahydro-2H-[1,2′]bipyridinyl-4,4′-carboxylic acid 4-[(3,5-dimethylphenyl)amide] 4′-[(4-ethoxyphenyl)amide]] were, in that order, 250 to 252 °C and < 5000 nM.
With `CCOc1ccc(NC(=O)c2ccnc(N3CCC(C(=O)Nc4cccc(SC)c4)CC3)c2)cc1` [VI-1004], the melting point fell in the range of 200 to 202 °C. Moreover, the IC50 in data set [2] is < 5000 nM.
The like results for `CCOc1ccc(NC(=O)c2ccnc(N3CCC(C(=O)Nc4ccc(C(C)C)cc4)CC3)c2)cc1` [VI-1005, 3,4,5,6-Tetrahydro-2H-[1,2′]bipyridinyl-4,4′-carboxylic acid 4′-[(4-ethoxyphenyl)amide] 4-[(4-isopropylphenyl)amide]] were, in that order, 243 to 245 °C and < 5000 nM.
The like results for `CCOc1ccc(NC(=O)c2ccnc(N3CCC(C(=O)Nc4ccccc4OC)CC3)c2)cc1` [VI-1006, 3,4,5,6-Tetrahydro-2H-[1,2′]bipyridinyl-4,4′-carboxylic acid 4′-[(4-ethoxyphenyl)amide] 4-[(2-methoxyphenyl)amide]] were, in that order, 182 to 184 °C and < 5000 nM.
As for `Cc1ccc(S(=O)(=O)N2CCCc3cc(C(=O)Nc4c(C)cc(C)cc4C)ccc32)cc1` [VII-1001, 1-Tosyl-1,2,3,4-tetrahydroquinoline-6-carboxylic acid (2,4,6-mesityl)amide], the melting point lay within 252 to 255 °C. Moreover, the “Suppression of Gli1 expression (HGli mRNA)” value in data set [1] is given as “block effectively Hh-signalling cascade”. Also, the IC50 in data set [2] was < 500 nM.
With `CN1CCc2c(sc(NC(=O)C3CCCCC3)c2-c2nc3ccccc3s2)C1.Cl` [VIII-1001, Cyclohexanecarboxylic acid (3-benzo[d]thiazol-2-yl-6-methyl-4,5,6,7-tetrahydrothieno[2,3-c]pyridin-2-yl)amide], the IC50 in data set [2] is < 500 nM. In data set [3] (IP, 100 mg/Kg), the concentration peaked (Cmax) at 45 ng/mL and the half-life turned out to be 4.9 h. In addition, the MTD at 5 days in data set [4] was > 100 mg/kg.
